PubChem BioAssay (NCI)
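Each compound was tested at five concentrations against cells in 96-well plates for 48 hours. GI50: concentration for 50% inhibition of growth. The concentration for full growth arrest is given as TGI.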

Key:
Assay in all cases: NCI anticancer screen, dose series, 48 h; in the data active means GI50 below about 0.43 µM; inactive means the rest
786-0 renal = test system: 786-0 renal
A498 renal = test system: A498 renal
A549 NSCLC = test system: A549 NSCLC
ACHN renal = test system: ACHN renal
BT-549 breast = test system: BT-549 breast
CAKI-1 renal = test system: CAKI-1 renal
CCRF-CEM leukemia = test system: CCRF-CEM leukemia
COLO 205 colon = test system: COLO 205 colon
DU-145 prostate = test system: DU-145 prostate
EKVX NSCLC = test system: EKVX NSCLC
HCC-2998 colon = test system: HCC-2998 colon
HCT-116 colon = test system: HCT-116 colon
HCT-15 colon = test system: HCT-15 colon
HL-60(TB) leukemia = test system: HL-60(TB) leukemia
HOP-62 NSCLC = test system: HOP-62 NSCLC
HOP-92 NSCLC = test system: HOP-92 NSCLC
HS 578T breast = test system: HS 578T breast
HT29 colon = test system: HT29 colon
IGROV1 ovarian = test system: IGROV1 ovarian
K-562 leukemia = test system: K-562 leukemia
KM12 colon = test system: KM12 colon
LOX IMVI melanoma = test system: LOX IMVI melanoma
M14 melanoma = test system: M14 melanoma
MALME-3M melanoma = test system: MALME-3M melanoma
MCF7 breast = test system: MCF7 breast
MDA-MB-231 breast = test system: MDA-MB-231 breast
MDA-MB-435 = test system: MDA-MB-435
MOLT-4 leukemia = test system: MOLT-4 leukemia
NCI-H226 lung = test system: NCI-H226 lung
NCI-H23 lung = test system: NCI-H23 lung
NCI-H460 lung = test system: NCI-H460 lung
NCI-H522 lung = test system: NCI-H522 lung
NCI/ADR-RES ovarian = test system: NCI/ADR-RES ovarian
OVCAR-3 ovarian = test system: OVCAR-3 ovarian
OVCAR-4 ovarian = test system: OVCAR-4 ovarian
OVCAR-5 ovarian = test system: OVCAR-5 ovarian
OVCAR-8 ovarian = test system: OVCAR-8 ovarian
PC-3 prostate = test system: PC-3 prostate
RPMI-8226 leukemia = test system: RPMI-8226 leukemia
RXF 393 renal = test system: RXF 393 renal
SF-268 CNS = test system: SF-268 CNS
SF-295 CNS = test system: SF-295 CNS
SF-539 CNS = test system: SF-539 CNS
SK-MEL-2 melanoma = test system: SK-MEL-2 melanoma
SK-MEL-28 melanoma = test system: SK-MEL-28 melanoma
SK-MEL-5 melanoma = test system: SK-MEL-5 melanoma
SK-OV-3 ovarian = test system: SK-OV-3 ovarian
SN12C renal = test system: SN12C renal
SNB-19 CNS = test system: SNB-19 CNS
SNB-75 CNS = test system: SNB-75 CNS
SW-620 colon = test system: SW-620 colon
T-47D breast = test system: T-47D breast
TK-10 renal = test system: TK-10 renal
U251 CNS = test system: U251 CNS
UACC-257 melanoma = test system: UACC-257 melanoma
UACC-62 melanoma = test system: UACC-62 melanoma
UO-31 renal = test system: UO-31 renal

CC(C)(C)NCC(O)c1ccccc1Cl (centres undefined)
inactive: GI50 (786-0 renal) > 100 µM | GI50 (A498 renal) > 100 µM | GI50 (A549 NSCLC) > 100 µM | GI50 (ACHN renal) > 100 µM | GI50 (BT-549 breast) > 100 µM | GI50 (CAKI-1 renal) > 100 µM | GI50 (CCRF-CEM leukemia) > 100 µM | GI50 (COLO 205 colon) > 100 µM | GI50 (DU-145 prostate) > 100 µM | GI50 (EKVX NSCLC) > 100 µM | GI50 (HCC-2998 colon) > 100 µM | GI50 (HCT-116 colon) > 100 µM | GI50 (HCT-15 colon) > 100 µM | GI50 (HL-60(TB) leukemia) > 100 µM | GI50 (HOP-62 NSCLC) > 100 µM | GI50 (HOP-92 NSCLC) > 100 µM | GI50 (HS 578T breast) > 100 µM | GI50 (HT29 colon) > 100 µM | GI50 (IGROV1 ovarian) > 100 µM | GI50 (K-562 leukemia) > 100 µM | GI50 (KM12 colon) > 100 µM | GI50 (LOX IMVI melanoma) > 100 µM | GI50 (M14 melanoma) > 100 µM | GI50 (MALME-3M melanoma) > 100 µM | GI50 (MCF7 breast) > 100 µM | GI50 (MDA-MB-231 breast) > 100 µM | GI50 (MDA-MB-435) > 100 µM | GI50 (MOLT-4 leukemia) > 100 µM | GI50 (NCI-H226 lung) > 100 µM | GI50 (NCI-H23 lung) > 100 µM | GI50 (NCI-H460 lung) > 100 µM | GI50 (NCI-H522 lung) > 100 µM | GI50 (NCI/ADR-RES ovarian) > 100 µM | GI50 (OVCAR-3 ovarian) > 100 µM | GI50 (OVCAR-4 ovarian) > 100 µM | GI50 (OVCAR-5 ovarian) > 100 µM | GI50 (OVCAR-8 ovarian) > 100 µM | GI50 (PC-3 prostate) > 100 µM | GI50 (RPMI-8226 leukemia) > 100 µM | GI50 (RXF 393 renal) > 100 µM | GI50 (SF-268 CNS) > 100 µM | GI50 (SF-295 CNS) > 100 µM | GI50 (SF-539 CNS) > 100 µM | GI50 (SK-MEL-2 melanoma) > 100 µM | GI50 (SK-MEL-28 melanoma) > 100 µM | GI50 (SK-MEL-5 melanoma) > 100 µM | GI50 (SK-OV-3 ovarian) > 100 µM | GI50 (SN12C renal) > 100 µM | GI50 (SNB-19 CNS) > 100 µM | GI50 (SNB-75 CNS) > 100 µM | GI50 (SW-620 colon) > 100 µM | GI50 (T-47D breast) > 100 µM | GI50 (TK-10 renal) > 100 µM | GI50 (U251 CNS) > 100 µM | GI50 (UACC-257 melanoma) > 100 µM | GI50 (UACC-62 melanoma) > 100 µM | GI50 (UO-31 renal) > 100 µM
> 100 µM: TGI (786-0 renal) | TGI (A498 renal) | TGI (A549 NSCLC) | TGI (ACHN renal) | TGI (BT-549 breast) | TGI (CAKI-1 renal) | TGI (CCRF-CEM leukemia) | TGI (COLO 205 colon) | TGI (DU-145 prostate) | TGI (EKVX NSCLC) | TGI (HCC-2998 colon) | TGI (HCT-116 colon) | TGI (HCT-15 colon) | TGI (HL-60(TB) leukemia) | TGI (HOP-62 NSCLC) | TGI (HOP-92 NSCLC) | TGI (HS 578T breast) | TGI (HT29 colon) | TGI (IGROV1 ovarian) | TGI (K-562 leukemia) | TGI (KM12 colon) | TGI (LOX IMVI melanoma) | TGI (M14 melanoma) | TGI (MALME-3M melanoma) | TGI (MCF7 breast) | TGI (MDA-MB-231 breast) | TGI (MDA-MB-435) | TGI (MOLT-4 leukemia) | TGI (NCI-H226 lung) | TGI (NCI-H23 lung) | TGI (NCI-H460 lung) | TGI (NCI-H522 lung) | TGI (NCI/ADR-RES ovarian) | TGI (OVCAR-3 ovarian) | TGI (OVCAR-4 ovarian) | TGI (OVCAR-5 ovarian) | TGI (OVCAR-8 ovarian) | TGI (PC-3 prostate) | TGI (RPMI-8226 leukemia) | TGI (RXF 393 renal) | TGI (SF-268 CNS) | TGI (SF-295 CNS) | TGI (SF-539 CNS) | TGI (SK-MEL-2 melanoma) | TGI (SK-MEL-28 melanoma) | TGI (SK-MEL-5 melanoma) | TGI (SK-OV-3 ovarian) | TGI (SN12C renal) | TGI (SNB-19 CNS) | TGI (SNB-75 CNS) | TGI (SW-620 colon) | TGI (T-47D breast) | TGI (TK-10 renal) | TGI (U251 CNS) | TGI (UACC-257 melanoma) | TGI (UACC-62 melanoma) | TGI (UO-31 renal)
